{"source": "ChEMBL document CHEMBL5500337", "about": "“Synthesis and anti-liver fibrosis activity of imidazole and thiazole compounds containing amino acids” (Eur J Med Chem, 2024)", "key": {"[1]": {"biological_target": "Mitogen-activated protein kinase 14 (Homo sapiens, UniProt Q16539)", "sequence (Q16539 whole entry)": "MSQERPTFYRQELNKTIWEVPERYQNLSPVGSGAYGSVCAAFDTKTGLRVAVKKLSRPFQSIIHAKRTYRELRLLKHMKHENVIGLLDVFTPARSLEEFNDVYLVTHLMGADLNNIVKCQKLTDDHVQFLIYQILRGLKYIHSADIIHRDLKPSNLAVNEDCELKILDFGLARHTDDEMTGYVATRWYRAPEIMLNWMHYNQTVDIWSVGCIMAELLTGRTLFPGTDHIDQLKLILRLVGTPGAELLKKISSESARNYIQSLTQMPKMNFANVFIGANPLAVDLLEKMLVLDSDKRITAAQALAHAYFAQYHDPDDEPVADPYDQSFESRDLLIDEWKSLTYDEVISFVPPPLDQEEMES", "assay": "Inhibition of human recombinant p38alpha expressed in Escherichia coli incubated for 60 mins in presence of ATP by microplate scintillation counter"}, "LX-2 [2]": {"tested_on": "LX-2", "assay": "Anti-fibrotic activity in human LX-2 cells assessed as reduction in alpha-SMA protein expression at 5 uM preincubated with compound for 1 hrs followed by TGFbeta addition and measured after 24 hrs by Western blot analysis", "assay_type": "functional, cell-based", "settings": "time 25.0 hrs"}, "LX-2 [3]": {"tested_on": "LX-2", "assay": "Cytotoxicity against human LX-2 cells assessed as reduction in cell viability at 100 uM incubated for 24 hrs by MTT assay", "assay_type": "toxicity, cell-based", "settings": "lx-2, 24 h"}, "LX-2 [4]": {"tested_on": "LX-2", "assay": "Anti-fibrotic activity in human LX-2 cells assessed as inhibition of alpha-SMA mRNA expression at 5 uM preincubated with compound for 1 hrs followed by TGFbeta addition and measured after 24 hrs by RT-PCR analysis", "assay_type": "functional, cell-based", "settings": "time 25.0 hrs"}, "LX-2 [5]": {"tested_on": "LX-2", "assay": "Anti-fibrotic activity in human LX-2 cells assessed as reduction in collagen I protein expression at 20 uM preincubated with compound for 1 hrs followed by TGFbeta addition and measured after 24 hrs by Western blot analysis", "assay_type": "functional, cell-based", "settings": "time 25.0 hrs"}, "LX-2 [6]": {"tested_on": "LX-2", "assay": "Anti-fibrotic activity in human LX-2 cells assessed as reduction in alpha-SMA protein expression at 20 uM preincubated with compound for 1 hrs followed by TGFbeta addition and measured after 24 hrs by Western blot analysis", "assay_type": "functional, cell-based", "settings": "time 25.0 hrs"}, "LX-2 [7]": {"tested_on": "LX-2", "assay": "Cytotoxicity against human LX-2 cells assessed as reduction in cell viability at 6.25 uM incubated for 24 hrs by MTT assay", "assay_type": "toxicity, cell-based", "settings": "lx-2, 24 h"}, "[8]": {"assay": "Half-life in male Sprague-Dawley rat at 4 mg/kg, iv measured after 8 hrs by UPLC-MS/MS analysis", "assay_type": "ADME, organism-based", "settings": "in vivo"}, "[9]": {"assay": "MRT (0 to t) in male Sprague-Dawley rat at 15 mg/kg, po measured after 8 hrs by UPLC-MS/MS analysis", "assay_type": "ADME, organism-based", "settings": "in vivo"}, "LX-2 [10]": {"tested_on": "LX-2", "assay": "Cytotoxicity against human LX-2 cells assessed as reduction in cell viability upto 50 uM incubated for 24 hrs by MTT assay", "assay_type": "toxicity, cell-based", "settings": "lx-2, 24 h"}, "[11]": {"assay": "MRT (0 to t) in male Sprague-Dawley rat at 4 mg/kg, iv measured after 8 hrs by UPLC-MS/MS analysis", "assay_type": "ADME, organism-based", "settings": "in vivo"}, "LX-2 [12]": {"tested_on": "LX-2", "assay": "Anti-fibrotic activity in human LX-2 cells assessed as inhibition of alpha-SMA expression preincubated with compound for 1 hrs followed by TGFbeta addition and measured after 24 hrs by DAPI staining based confocal laser scanning microscopic analysis", "assay_type": "functional, cell-based", "settings": "dose 5-20 µM, time 25.0 hrs"}, "[13]": {"assay": "Cmax in male Sprague-Dawley rat at 4 mg/kg, iv measured after 8 hrs by UPLC-MS/MS analysis", "assay_type": "ADME, organism-based", "settings": "in vivo"}, "[14]": {"assay": "Half-life in male Sprague-Dawley rat at 15 mg/kg, po measured after 8 hrs by UPLC-MS/MS analysis", "assay_type": "ADME, organism-based", "settings": "in vivo"}, "[15]": {"assay": "AUC (0 to infinity) in male Sprague-Dawley rat at 15 mg/kg, po measured after 8 hrs by UPLC-MS/MS analysis", "assay_type": "ADME, organism-based", "settings": "in vivo"}, "[16]": {"assay": "AUC (0 to t) in male Sprague-Dawley rat at 15 mg/kg, po measured after 8 hrs by UPLC-MS/MS analysis", "assay_type": "ADME, organism-based", "settings": "in vivo"}, "[17]": {"assay": "AUC (0 to infinity) in male Sprague-Dawley rat at 4 mg/kg, iv measured after 8 hrs by UPLC-MS/MS analysis", "assay_type": "ADME, organism-based", "settings": "in vivo"}, "[18]": {"assay": "Tmax in male Sprague-Dawley rat at 15 mg/kg, po measured after 8 hrs by UPLC-MS/MS analysis", "assay_type": "ADME, organism-based", "settings": "in vivo"}, "[19]": {"assay": "Clearance in male Sprague-Dawley rat at 15 mg/kg, po measured after 8 hrs by UPLC-MS/MS analysis", "assay_type": "ADME, organism-based", "settings": "in vivo"}, "[20]": {"assay": "Cmax in male Sprague-Dawley rat at 15 mg/kg, po measured after 8 hrs by UPLC-MS/MS analysis", "assay_type": "ADME, organism-based", "settings": "in vivo"}, "[21]": {"assay": "AUC (0 to t) in male Sprague-Dawley rat at 4 mg/kg, iv measured after 8 hrs by UPLC-MS/MS analysis", "assay_type": "ADME, organism-based", "settings": "in vivo"}, "[22]": {"assay": "Tmax in male Sprague-Dawley rat at 4 mg/kg, iv measured after 8 hrs by UPLC-MS/MS analysis", "assay_type": "ADME, organism-based", "settings": "in vivo"}, "[23]": {"assay": "Clearance in male Sprague-Dawley rat at 4 mg/kg, iv measured after 8 hrs by UPLC-MS/MS analysis", "assay_type": "ADME, organism-based", "settings": "in vivo"}, "[24]": {"assay": "Oral bioavailability in male Sprague-Dawley rat at 15 mg/kg measured after 8 hrs by UPLC-MS/MS analysis", "assay_type": "ADME, organism-based", "settings": "in vivo"}, "LX-2 [25]": {"tested_on": "LX-2", "assay": "Cytotoxicity against human LX-2 cells assessed as reduction in cell viability upto 100 uM incubated for 24 hrs by MTT assay", "assay_type": "toxicity, cell-based", "settings": "lx-2, 24 h"}}, "note": "The source made the active and inactive calls. The calls are words filed in the database; no cut-off is given here."}
{"molecule": "Cc1cccc(-c2[nH]c(CNC(=O)[C@H]3CCCCN3)nc2-c2ccc3ncnn3c2)n1", "values": [{"measurement": "IC50", "setting": "[1]", "value": "> 1", "unit": "µM"}]}
{"molecule": "Cc1cccc(-c2nc(NC(=O)[C@H](N)Cc3ccccc3)sc2-c2ccc3ncnn3c2)n1", "values": [{"measurement": "IC50", "setting": "[1]", "value": "> 3", "unit": "µM"}]}
{"molecule": "Cc1cccc(-c2[nH]c(CNC(=S)[C@H](N)Cc3ccccc3)nc2-c2ccc3ncnn3c2)n1", "values": [{"measurement": "IC50", "setting": "[1]", "value": "> 1", "unit": "µM"}]}
{"molecule": "Cc1cccc(-c2[nH]c(CNC(=O)[C@@H](N)CC(C)C)nc2-c2ccc3ncnn3c2)n1", "values": [{"measurement": "IC50", "setting": "[1]", "value": "> 3", "unit": "µM"}]}
{"molecule": "Cc1cccc(-c2[nH]c(CNC(=S)[C@@H](N)Cc3ccccc3)nc2-c2ccc3ncnn3c2)n1", "values": [{"measurement": "IC50", "setting": "[1]", "value": "> 3", "unit": "µM"}]}
{"molecule": "Cc1cccc(-c2nc(NC(=O)[C@H](C)N)sc2-c2ccc3ncnn3c2)n1", "values": [{"measurement": "IC50", "setting": "[1]", "value": "> 1", "unit": "µM"}]}
{"molecule": "Cc1cccc(-c2nc(NC(=S)[C@@H](N)CC(C)C)sc2-c2ccc3ncnn3c2)n1", "values": [{"measurement": "IC50", "setting": "[1]", "value": "> 1", "unit": "µM"}]}
{"molecule": "Cc1cccc(-c2nn3c(c2-c2ccnc4ccc(C(N)=O)cc24)CCC3)n1", "values": [{"measurement": "Activity", "setting": "LX-2 [2]", "value": "Active"}]}
{"molecule": "Cc1cccc(-c2nc(NC(=O)[C@@H](N)Cc3ccccc3)sc2-c2ccc3ncnn3c2)n1", "values": [{"measurement": "IC50", "setting": "[1]", "value": "> 3", "unit": "µM"}]}
{"molecule": "Cc1cccc(-c2nc(NC(=O)[C@H]3CCCCN3)sc2-c2ccc3ncnn3c2)n1", "values": [{"measurement": "IC50", "setting": "[1]", "value": "> 3", "unit": "µM"}]}
{"molecule": "Cc1cccc(-c2nc(NC(=O)[C@H](N)CC(C)C)sc2-c2ccc3ncnn3c2)n1", "values": [{"measurement": "IC50", "setting": "[1]", "value": "> 3", "unit": "µM"}, {"measurement": "Activity", "setting": "LX-2 [3]", "value": "Toxic"}, {"measurement": "Activity", "setting": "LX-2 [4]", "value": "Active"}, {"measurement": "Activity", "setting": "LX-2 [5]", "value": "Active"}, {"measurement": "Activity", "setting": "LX-2 [6]", "value": "Active"}, {"measurement": "Activity", "setting": "LX-2 [7]", "value": "Non-Toxic"}]}
{"molecule": "Cc1cccc(-c2nc(NC(=O)[C@@H]3CCCCN3)sc2-c2ccc3ncnn3c2)n1", "values": [{"measurement": "IC50", "setting": "[1]", "value": "> 3", "unit": "µM"}]}
{"molecule": "Cc1cccc(-c2[nH]c(CNC(=O)[C@@H]3CCCCN3)nc2-c2ccc3ncnn3c2)n1", "values": [{"measurement": "IC50", "setting": "[1]", "value": "> 3", "unit": "µM"}]}
{"molecule": "Cc1cccc(-c2nc(NC(=S)[C@H](N)CC(C)C)sc2-c2ccc3ncnn3c2)n1", "values": [{"measurement": "IC50", "setting": "[1]", "value": "> 1", "unit": "µM"}]}
{"molecule": "Cc1cccc(-c2[nH]c(CNC(=O)[C@H](C)N)nc2-c2ccc3ncnn3c2)n1", "values": [{"measurement": "IC50", "setting": "[1]", "value": "> 3", "unit": "µM"}]}
{"molecule": "Cc1cccc(-c2[nH]c(CNC(=O)[C@H](N)CC(C)C)nc2-c2ccc3ncnn3c2)n1", "values": [{"measurement": "IC50", "setting": "[1]", "value": "> 3", "unit": "µM"}]}
{"molecule": "Cc1cccc(-c2[nH]c(CNC(=O)[C@H](N)Cc3ccccc3)nc2-c2ccc3ncnn3c2)n1", "values": [{"measurement": "half-life", "setting": "[8]", "value": 2.24, "unit": "h"}, {"measurement": "MRT last at 8 h", "setting": "[9]", "value": 2.79, "unit": "h"}, {"measurement": "Activity", "setting": "LX-2 [10]", "value": "Non-Toxic"}, {"measurement": "MRT last at 8 h", "setting": "[11]", "value": 1.01, "unit": "h"}, {"measurement": "Activity", "setting": "LX-2 [12]", "value": "Dose-Dependent Effect"}, {"measurement": "Cmax", "setting": "[13]", "value": 43100, "unit": "ng/mL"}, {"measurement": "Activity", "setting": "LX-2 [4]", "value": "Active"}, {"measurement": "half-life", "setting": "[14]", "value": 9.14, "unit": "h"}, {"measurement": "AUC", "setting": "[15]", "value": 2667, "unit": "ng·h/mL"}, {"measurement": "Activity", "setting": "LX-2 [5]", "value": "Active"}, {"measurement": "AUC(0-t) at 8 h", "setting": "[16]", "value": 1220, "unit": "ng·h/mL"}, {"measurement": "AUC", "setting": "[17]", "value": 12802, "unit": "ng·h/mL"}, {"measurement": "Tmax", "setting": "[18]", "value": 6.6, "unit": "min"}, {"measurement": "CL/F", "setting": "[19]", "value": 109, "unit": "mL/min/kg"}, {"measurement": "Cmax", "setting": "[20]", "value": 1390, "unit": "ng/mL"}, {"measurement": "AUC(0-t) at 8 h", "setting": "[21]", "value": 12500, "unit": "ng·h/mL"}, {"measurement": "Tmax", "setting": "[22]", "value": 0, "unit": "h"}, {"measurement": "Activity", "setting": "LX-2 [6]", "value": "Active"}, {"measurement": "clearance", "setting": "[23]", "value": 5.23, "unit": "mL/min/kg"}, {"measurement": "F", "setting": "[24]", "value": 2.59, "unit": "%"}]}
{"molecule": "Cc1cccc(-c2nc(NC(=O)[C@@H](N)CC(C)C)sc2-c2ccc3ncnn3c2)n1", "values": [{"measurement": "IC50", "setting": "[1]", "value": "> 1", "unit": "µM"}, {"measurement": "Activity", "setting": "LX-2 [25]", "value": "Non-Toxic"}, {"measurement": "Activity", "setting": "LX-2 [4]", "value": "Active"}, {"measurement": "Activity", "setting": "LX-2 [5]", "value": "Active"}, {"measurement": "Activity", "setting": "LX-2 [6]", "value": "Active"}]}
